According to patent publication US9695155B2, “Herbicidal substituted pyrimidinyloxy benzene compounds” (E. I. DU PONT DE NEMOURS AND COMPANY, priority 2013, dated 2017):

Experiments:
ragweed [1] = assay: Test C postemergence; assay type: in vivo, Ambrosia elatior; conditions: for Plant response rating, Ragweed: Postemergence, scale 0 to 100 (0 no effect, 100 complete control)
Outline: (§1)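 Plants were kept under greenhouse conditions for 13–15 days following spray. Pre-emergent application went to soil (loam–sand), post-emergent to foliage at 1–4 leaves. Evaluation: visual, percent control against untreated checks.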

galium = assay: Test C preemergence; assay type: in vivo, Galium aparine; conditions: for Galium plant response rating: preemergence
Outline: as §1

corn [2] = assay: Test A postemergence; assay type: in vivo, Zea mays
Outline: (§2)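 Compounds in non-phytotoxic solvent with surfactant applied as soil spray preemergence, or postemergence to plants 2-10 cm at one- to two-leaf stage, in loam/sand. After approximately 10 days in greenhouse, injury rated visually versus untreated controls, 0 (no effect) to 100 (complete control).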

morningglory [3] = assay: Test C postemergence; assay type: in vivo, Ipomoea coccinea; conditions: for Plant response rating, Morningglory: Postemergence, scale 0 to 100 (0 no effect, 100 complete control)
Outline: as §1

pigweed [4] = assay: Test A postemergence; assay type: in vivo, Amaranthus retroflexus; conditions: 0 to 100 scale where 0 is no effect and 100 is complete control
Outline: as §2

morningglory [5] = assay: Test C preemergence; assay type: in vivo, Ipomoea coccinea; conditions: for Morningglory plant response rating: preemergence
Outline: as §1

ragweed [6] = assay: Test C preemergence; assay type: in vivo, Ambrosia elatior; conditions: for Ragweed plant response rating: preemergence
Outline: as §1

giant foxtail [7] = assay: Test A postemergence; assay type: in vivo, Setaria faberii; conditions: 0 to 100 scale where 0 is no effect and 100 is complete control
Outline: as §2

giant foxtail [8] = assay: Test C postemergence; assay type: in vivo, Setaria faberii; conditions: for Plant response rating, Foxtail, Giant: Postemergence
Outline: as §1

soybean = assay: Test C postemergence; assay type: in vivo, Glycine max; conditions: for Plant response rating, Soybean: Postemergence, scale 0 to 100 (0 no effect, 100 complete control)
Outline: as §1

pigweed [9] = assay: Test C postemergence; assay type: in vivo, Amaranthus retroflexus; conditions: for Plant response rating, Pigweed: Postemergence, scale 0 to 100 (0 no effect, 100 complete control)
Outline: as §1

lambsquarters [10] = assay: Test C preemergence; assay type: in vivo, Chenopodium album; conditions: for Lambsquarters plant response rating: preemergence
Outline: as §1

waterhemp = assay: Test C postemergence; assay type: in vivo, Amaranthus rudis; conditions: for Plant response rating, Waterhemp: Postemergence, scale 0 to 100 (0 no effect, 100 complete control)
Outline: as §1

large (Lg) crabgrass = assay: Test C postemergence; assay type: in vivo, Digitaria sanguinalis; conditions: for Plant response rating, Crabgrass, Large: Postemergence
Outline: as §1

lambsquarters [11] = assay: Test C postemergence; assay type: in vivo, Chenopodium album; conditions: for Plant response rating, Lambsquarters: Postemergence, scale 0 to 100 (0 no effect, 100 complete control)
Outline: as §1

velvetleaf = assay: Test C preemergence; assay type: in vivo, Abutilon theophrasti; conditions: for Velvetleaf plant response rating: preemergence
Outline: as §1

corn [12] = assay: Test C preemergence; assay type: in vivo, Zea mays; conditions: for Corn plant response rating: preemergence
Outline: as §1

[13] = 16 g ai/ha, scale 0 to 100 (0 no effect, 100 complete control)
[14] = 62 g ai/ha, scale 0 (no effect) to 100 (complete control)
[15] = 125 g ai/ha, scale 0 (no effect) to 100 (complete control)
[16] = Preemergence, 31 g ai/ha, scale 0 to 100, 0 no effect, 100 complete control
[17] = 16 g ai/ha, postemergence, visual rating, scale 0 to 100 (0 no effect, 100 complete control), 13 to 15 days
[18] = 31 g ai/ha, scale 0 to 100 (0 no effect, 100 complete control), 13 to 15 days
[19] = 62 g ai/ha, scale 0 to 100 (0 no effect, 100 complete control)

`FCc1cccc(Oc2ncc(Cl)cn2)c1-n1cc(Br)cn1` [Compound 83] was tested, and the “Plant response rating (0 to 100), Ragweed” value (ragweed [1]; 125 g ai/ha, postemergence) was 70, the “Plant response rating, Ragweed” value (ragweed [1]; 31 g ai/ha, 13 to 15 days) was 40 and the “Plant response rating, Ragweed” value (ragweed [1]; 62 g ai/ha) was 60. The “Galium plant response rating” value (galium; [13]) was 0, the “Galium plant response rating” value (galium; [14]) was 85 and the “Galium plant response rating” value (galium; [15]) was 100. For the same compound, the “Plant response rating, Galium” value (galium; [16]) was 0, the “Plant response rating, Corn” value (corn [2]; 125 g ai/ha, 0 to 100 scale where 0 is no effect and 100 is complete control) was 40 and the “Plant response rating, Corn” value (corn [2]; 500 g ai/ha, 0 to 100 scale, 0 no effect, 100 complete control) was 60. The “Plant response rating (0 to 100), Morningglory” value (morningglory [3]; 125 g ai/ha, postemergence) was 85, the “Plant response rating, Morningglory” value (morningglory [3]; 31 g ai/ha, 13 to 15 days) was 65 and the “Plant response rating, Morningglory” value (morningglory [3]; 62 g ai/ha) was 75. The “Plant response rating, Pigweed” value (pigweed [4]; 125 g ai/ha) was 100, the “Plant response rating, Pigweed” value (pigweed [4]; 500 g ai/ha) was 100 and the “Morningglory plant response rating” value (morningglory [5]; [13]) was 0. The “Morningglory plant response rating” value (morningglory [5]; [14]) was 0, the “Morningglory plant response rating” value (morningglory [5]; [15]) was 10 and the “Plant response rating, Morningglory” value (morningglory [5]; [16]) was 0. For the same compound, the “Ragweed plant response rating” value (ragweed [6]; [13]) was 0, the “Ragweed plant response rating” value (ragweed [6]; [14]) was 40 and the “Ragweed plant response rating” value (ragweed [6]; [15]) was 45. For the same compound, the “Plant response rating, Ragweed” value (ragweed [6]; [16]) was 35, the “Plant response rating, Foxtail, Giant” value (giant foxtail [7]; 125 g ai/ha) was 90 and the “Plant response rating, Foxtail, Giant” value (giant foxtail [7]; 500 g ai/ha) was 100. The “Foxtail, Giant plant response rating” value (giant foxtail [8]; [17]) was 35, the “Plant response rating (0 to 100), Foxtail, Giant” value (giant foxtail [8]; 125 g ai/ha, postemergence) was 40 and the “Plant response rating, Foxtail, Giant” value (giant foxtail [8]; [18]) was 35. For the same compound, the “Plant response rating, Foxtail, Giant” value (giant foxtail [8]; [19]) was 10, the “Plant response rating (0 to 100), Soybean” value (soybean; 125 g ai/ha, postemergence) was 90 and the “Plant response rating, Soybean” value (soybean; 31 g ai/ha, 13 to 15 days) was 60. The “Plant response rating, Soybean” value (soybean; 62 g ai/ha) was 70, the “Plant response rating (0 to 100), Pigweed” value (pigweed [9]; 125 g ai/ha, postemergence) was 85 and the “Plant response rating, Pigweed” value (pigweed [9]; 31 g ai/ha, 13 to 15 days) was 75. For the same compound, the “Plant response rating, Pigweed” value (pigweed [9]; 62 g ai/ha) was 75, the “Lambsquarters plant response rating” value (lambsquarters [10]; [13]) was 100 and the “Lambsquarters plant response rating” value (lambsquarters [10]; [14]) was 100. The “Lambsquarters plant response rating” value (lambsquarters [10]; [15]) was 100, the “Plant response rating, Lambsquarters” value (lambsquarters [10]; [16]) was 100 and the “Plant response rating (0 to 100), Waterhemp” value (waterhemp; 125 g ai/ha, postemergence) was 90. For the same compound, the “Plant response rating, Waterhemp” value (waterhemp; 31 g ai/ha, 13 to 15 days) was 50, the “Plant response rating, Waterhemp” value (waterhemp; 62 g ai/ha) was 70 and the “Crabgrass, Large plant response rating” value (large (Lg) crabgrass; [17]) was 5. For the same compound, the “Plant response rating (0 to 100), Crabgrass, Large” value (large (Lg) crabgrass; 125 g ai/ha, postemergence) was 10, the “Plant response rating, Crabgrass, Large” value (large (Lg) crabgrass; [18]) was 5 and the “Plant response rating, Crabgrass, Large” value (large (Lg) crabgrass; [19]) was 10. The “Plant response rating (0 to 100), Lambsquarters” value (lambsquarters [11]; 125 g ai/ha, postemergence) was 80, the “Plant response rating, Lambsquarters” value (lambsquarters [11]; 31 g ai/ha, 13 to 15 days) was 80 and the “Plant response rating, Lambsquarters” value (lambsquarters [11]; 62 g ai/ha) was 60. The “Velvetleaf plant response rating” value (velvetleaf; [13]) was 60, the “Velvetleaf plant response rating” value (velvetleaf; [14]) was 100 and the “Velvetleaf plant response rating” value (velvetleaf; [15]) was 100. For the same compound, the “Plant response rating, Velvetleaf” value (velvetleaf; [16]) was 100, the “Corn plant response rating” value (corn [12]; [13]) was 0 and the “Corn plant response rating” value (corn [12]; [14]) was 0. For the same compound, the “Corn plant response rating” value (corn [12]; [15]) was 15 and the “Plant response rating, Corn” value (corn [12]; [16]) was 0.
